{"source": "patent US20140329863A1", "about": "(priority 2011, published 2014)", "key": {"PrP^C in T98G cells": {"tested_on": "PrP^C in T98G cells", "assay_type": "cell-based, human", "conditions": "read-out: EC50 (μM) ELISA potency, PrP^C in T98G cells"}, "[1]": {"assay": "Hepatic microsomal stability, mouse", "conditions": "mouse liver microsomes; for Hepatic Extraction Ratio Mouse: predicted hepatic extraction; for half-life at 1 μM: mouse, pH 7.4"}, "[2]": {"assay": "Hepatic microsomal stability, human", "conditions": "human liver microsomes; for Hepatic Extraction Ratio Human: predicted hepatic extraction; for half-life at 1 μM: human, pH 7.4"}}}
{"smiles": "COc1cc(C(=O)c2cc(Cl)ccc2N)cc(OC)c1OC", "note": "[IND1323]", "values": [{"measurement": "EC50", "setting": "PrP^C in T98G cells", "result": 0.085, "unit": "µM"}]}
{"smiles": "CC1=CC(C)(C)N(S(=O)(=O)c2ccc(C)cc2)c2cc(C)ccc21", "note": "[IND5418]", "values": [{"measurement": "EC50", "setting": "PrP^C in T98G cells", "result": 0.649, "unit": "µM"}]}
{"smiles": "CCOC(=O)c1[nH]c(C)c(C(=O)c2ccc(C)cc2)c1C", "note": "[IND5672]", "values": [{"measurement": "EC50", "setting": "PrP^C in T98G cells", "result": 0.593, "unit": "µM"}]}
{"smiles": "CCOc1ccccc1C1C(C#N)=C(N)Oc2cc(N(C)C)ccc21", "note": "(centres unmarked) [IND8541]", "values": [{"measurement": "EC50", "setting": "PrP^C in T98G cells", "result": 0.155, "unit": "µM"}, {"measurement": "Hepatic Extraction Ratio Mouse", "setting": "[1]", "result": 0.97}, {"measurement": "half-life at 1 μM", "setting": "[1]", "result": 1.71, "unit": "min"}, {"measurement": "Hepatic Extraction Ratio Human", "setting": "[2]", "result": 0.77}, {"measurement": "half-life at 1 μM", "setting": "[2]", "result": 20.3, "unit": "min"}]}
{"smiles": "Cc1ccn2c(-c3csc(Nc4ccc(N(C)C)nc4)n3)c(C)nc2c1", "note": "[IND9756]", "values": [{"measurement": "EC50", "setting": "PrP^C in T98G cells", "result": 0.18, "unit": "µM"}]}
{"smiles": "CCOc1ccc2c(c1)C(C)=CC(C)(C)N2S(=O)(=O)c1ccc(C)cc1", "note": "[IND16365]", "values": [{"measurement": "EC50", "setting": "PrP^C in T98G cells", "result": 0.304, "unit": "µM"}]}
{"smiles": "CN(C)c1ccc2c(c1)OC(N)=C(C#N)C2c1cccc(F)c1", "note": "(centres unmarked) [IND17990]", "values": [{"measurement": "EC50", "setting": "PrP^C in T98G cells", "result": 0.031, "unit": "µM"}]}
{"smiles": "Cc1cc(C)c(S(=O)(=O)NCc2ccncc2)c(C)c1", "note": "[IND18762]", "values": [{"measurement": "EC50", "setting": "PrP^C in T98G cells", "result": 4.13, "unit": "µM"}]}
{"smiles": "CN(C)c1ccc2c(c1)OC(N)=C(C#N)C2c1cccs1", "note": "(centres unmarked) [IND23846]", "values": [{"measurement": "EC50", "setting": "PrP^C in T98G cells", "result": 0.21, "unit": "µM"}]}
{"smiles": "COC(=O)c1[nH]c2c(c1C)C(=O)CC(c1cccs1)C2", "note": "(centres unmarked) [IND73602]", "values": [{"measurement": "EC50", "setting": "PrP^C in T98G cells", "result": 0.521, "unit": "µM"}]}
{"smiles": "N#Cc1c(NC(=O)CCc2cccs2)sc2c1CCCC2", "note": "[IND82865]", "values": [{"measurement": "EC50", "setting": "PrP^C in T98G cells", "result": 0.242, "unit": "µM"}]}
{"smiles": "O=C(Nc1ccc(I)cn1)c1cccc(F)c1", "note": "[IND84911]", "values": [{"measurement": "EC50", "setting": "PrP^C in T98G cells", "result": 0.55, "unit": "µM"}]}
{"smiles": "CCc1nnc(NC(=O)c2ccoc2COc2ccccc2)s1", "note": "[IND85692]", "values": [{"measurement": "EC50", "setting": "PrP^C in T98G cells", "result": 2.28, "unit": "µM"}]}
{"smiles": "O=C(Nc1ccncc1)C1CCCN1S(=O)(=O)c1ccc2ccccc2c1", "note": "(centres unmarked) [IND86287]", "values": [{"measurement": "EC50", "setting": "PrP^C in T98G cells", "result": 2.65, "unit": "µM"}]}
{"smiles": "Cc1nc2ncccn2c1-c1csc(Nc2ccc(Cl)cc2)n1", "note": "[IND115948]", "values": [{"measurement": "EC50", "setting": "PrP^C in T98G cells", "result": 1.85, "unit": "µM"}]}
{"smiles": "COc1ccccc1C(=O)N1CCN(c2ccccc2OC)CC1", "note": "[IND116050]", "values": [{"measurement": "EC50", "setting": "PrP^C in T98G cells", "result": 0.887, "unit": "µM"}]}
{"smiles": "COc1ccc(Cl)cc1C(=O)N1CC(=O)Nc2ccccc21", "note": "[IND116063]", "values": [{"measurement": "EC50", "setting": "PrP^C in T98G cells", "result": 0.647, "unit": "µM"}]}
{"smiles": "COc1ccc(S(=O)(=O)N2CCOc3ccccc32)cc1", "note": "[IND116071]", "values": [{"measurement": "EC50", "setting": "PrP^C in T98G cells", "result": 1.71, "unit": "µM"}, {"measurement": "Hepatic Extraction Ratio Mouse", "setting": "[1]", "result": 0.98}, {"measurement": "half-life at 1 μM", "setting": "[1]", "result": 1.53, "unit": "min"}, {"measurement": "Hepatic Extraction Ratio Human", "setting": "[2]", "result": 0.94}, {"measurement": "half-life at 1 μM", "setting": "[2]", "result": 4.53, "unit": "min"}]}
{"smiles": "Cc1c(C(=O)OC(C)C)[nH]c2c1C(=O)CC(c1cccs1)C2", "note": "(centres unmarked) [IND116088]", "values": [{"measurement": "EC50", "setting": "PrP^C in T98G cells", "result": 0.303, "unit": "µM"}, {"measurement": "Hepatic Extraction Ratio Mouse", "setting": "[1]", "result": 0.90}, {"measurement": "half-life at 1 μM", "setting": "[1]", "result": 6.88, "unit": "min"}, {"measurement": "Hepatic Extraction Ratio Human", "setting": "[2]", "result": 0.74}, {"measurement": "half-life at 1 μM", "setting": "[2]", "result": 23.9, "unit": "min"}]}
{"smiles": "Cc1nc2sccn2c1-c1csc(Nc2ccc(N(C)C)nc2)n1", "note": "[IND126306]", "values": [{"measurement": "EC50", "setting": "PrP^C in T98G cells", "result": 0.217, "unit": "µM"}]}
